These are literature values, as cited in US8980933B2, “Combretastatin analogs for use in the treatment of cancer” (Universitat Bayreuth, priority 2010, dated 2015).

For this data set the following is noted: Bedford et al., Bioorg. Med. Chem. Lett. 1996; cited from earlier work.

`COc1ccc(/C=C\c2cc(OC)c(OC)c(OC)c2)cc1OP(=O)(O)O` [combretastatin A-4-phosphate]: the solubility in water result is on record as “about 5 mg/mL”.
